Test results as given in PMC7599001, “The SNAP-tag technology revised: an effective chemo-enzymatic approach by using a universal azide-based substrate” (Journal of Enzyme Inhibition and Medicinal Chemistry, 2020).
Read-outs that look alike come from different tables or passages of the source.

How the values were obtained:
SsOGT-H^5 [1] = molecular target: T1, SsOGT-H^5 (Saccharolobus solfataricus, UniProt Q97VW7, G105K/K110E/M106T/R102A/S100A/S132E); experiment: AGTs' substrate assay by competitive inhibition method with SVG (gel-imaging); format: biochemical
T1 construct: His6-tag; made in house; host or cells: E. coli ABLE C
Procedure: Competitive inhibition assay was performed as described[23]^,[38]. Briefly, by using a fixed concentration of the fluorescent SVG (5 µM) and enzymes (5 µM), an increasing amount of guanine-derivatives (0–2 mM) was added to the mixtures. […] Subsequently, fluorescent bands were measured by gel-imaging on a VersaDoc 4000™ system (Bio-Rad), by applying a blue LED/530 bandpass filter. Obtained data were finally plotted by Equation (1), (1) RF=100%/1+([I]/IC50)^[S] where RF is the obtained Relative Fluorescence, [I] and [S] are the concentration of the inhibitor and the substrate, respectively, and finally the IC50 is the concentration needed to reduce by 50% the fluorescence intensity of the protein band.
(§1) We evaluated the activity of SNAP-tag® and H^5 enzymes on BGN3 and BGSN3 by the afore-mentioned IC50 method (Figure S5(A,B)) and other O^6-guanine-derivatives (Table 1).
(§2) Because most of them are non-fluorescent compounds, we performed an AGTs’ competitive inhibition assay by using the fluorescein-derivative SNAP-Vista® Green as substrate (SVG), as previously described[22–24]^,[45]. Briefly, the reaction of an AGT with SVG led to a fluoresceinated protein, which can be visualised as a fluorescent band in gel-imaging analysis after SDS-PAGE. The presence of increasing amounts of a non-fluorescent competitor in the reaction causes a decrease of the fluorescent signals, which can be measured and plotted for the IC50 values determination[23]^,[46].

SNAP-tag® [2] = molecular target: T2, SNAP-tag® (Homo sapiens, UniProt P16455, A127T/C150S/C62A/G131K/G132T/K125A/M134L/N157G/R128A/R135S/S159E); experiment: as above; format: biochemical; conditions: for IC50: SVG 5 µM, enzyme 5 µM, 30 min at 25 °C
T2 sequence (P16455 1-182 C62A/K125A/A127T/R128A/G131K/G132T/M134L/R135S/C150S/N157G/S159E): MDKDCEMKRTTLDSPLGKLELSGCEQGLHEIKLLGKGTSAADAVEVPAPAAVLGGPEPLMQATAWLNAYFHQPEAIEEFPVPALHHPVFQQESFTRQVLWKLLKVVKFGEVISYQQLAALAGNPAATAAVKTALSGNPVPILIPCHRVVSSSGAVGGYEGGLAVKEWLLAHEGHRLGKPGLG
Procedure: Competitive inhibition assay was performed as described[23]^,[38]. Briefly, by using a fixed concentration of the fluorescent SVG (5 µM) and enzymes (5 µM), an increasing amount of guanine-derivatives (0–2 mM) was added to the mixtures. The reactions were incubated for 30 min at 25 °C and 50 °C for SNAP-tag® and H^5 respectively, and loaded on SDS-PAGE. Subsequently, fluorescent bands were measured by gel-imaging on a VersaDoc 4000™ system (Bio-Rad), by applying a blue LED/530 bandpass filter. Obtained data were finally plotted by Equation (1), (1) RF=100%/1+([I]/IC50)^[S] where RF is the obtained Relative Fluorescence, [I] and [S] are the concentration of the inhibitor and the substrate, respectively, and finally the IC50 is the concentration needed to reduce by 50% the fluorescence intensity of the protein band.
as §1, §2

[3] = test system: HEK293T cells transfected with SNAP-tag® plasmid; experiment: Permeability of eukaryotic cells to BGSN3 (lysates then incubated with SVG, gel-imaging); format: cell-based
Procedure: HEK293T cells were maintained at 37 °C with 5% CO2 in Dulbecco’s Modified Essential Medium (Invitrogen, Carlsbad, CA) supplemented with 10% Foetal Bovine Serum (FBS) (Invitrogen) and 100 U/ml Penicillin/Streptomycin (Roche, Switzerland). HEK293T cells were transfected with SNAP-tag® plasmid by using Lipofectamine 2000 (Invitrogen) following manufacturer’s protocol. The treatment with BGSN3 were performed, at the concentration and time indicated for each experiment. Twenty-four hours after transfection, we treated cells with BGSN3 for 2 h at different concentrations ranging (from 1 to 25 µM), directly dissolving the compound in complete culture medium. Then cells were harvested, washed with PBS 1× buffer and lysed with 50 mM Tris-HCl pH 7.4, 150 mM NaCl, 0.5 mM EDTA, 0.1% Triton X-100 supplemented with complete protease (Roche, Switzerland) and phosphatase (SERVA Electrophoresis, Germany) inhibitors. Afterwards, transfected cells were treated with a fixed concentration of BGSN3 (10 µM) at different time points (from 30 to 120 min). Again, HEK293T cells were washed and lysed as described before. […] Subsequently, proteins were loaded on SDS-PAGE and analysed by gel-imaging on a VersaDoc 4000™ system (Bio-Rad), by applying a blue LED/530 bandpass filter (Figure 6).

SsOGT-H^5 [4] = molecular target: T1, SsOGT-H^5; conditions: cited from earlier work
SNAP-tag® [5] = molecular target: T2, SNAP-tag®; design: method as in PMID 18291317, PMID 26499124; conditions: 25 °C; obtained by using a BG-fluorescein substrate (BG-FL) very similar to SVG; cited from earlier work
[6] = SVG 5 µM, enzyme 5 µM, 30 min at 50 °C, read-out: IC50

T1 sequence (Q97VW7 whole entry S100A/R102A/G105K/M106T/K110E/S132E): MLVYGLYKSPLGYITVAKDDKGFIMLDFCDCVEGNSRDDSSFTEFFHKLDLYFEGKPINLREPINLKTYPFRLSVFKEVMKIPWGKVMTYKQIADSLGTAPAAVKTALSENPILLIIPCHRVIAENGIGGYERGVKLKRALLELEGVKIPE

| Molecule | IC50 (SsOGT-H^5 [1]; [6]) [µM] | IC50 (SNAP-tag® [2]) [µM] | further results |
| --- | --- | --- | --- |
| Nc1nc(OCc2ccccc2)c2nc[nH]c2n1 [BG, O^6-benzyl-guanine] | 10.1 ± 1 | – | – |
| [N-]=[N+]=NCc1ccc(COc2nc(N)nc3nc[nH]c23)cc1 [BGN3, O^6-BG-N3] | 23.5 ± 1 | 15.6 ± 0.3 | – |
| [N-]=[N+]=NCCCC(=O)NCc1ccc(COc2nc(N)nc3[nH]cnc23)cc1 [BGSN3, N-(4-(((2-amino-9H-purin-6-yl)oxy)methyl)benzyl)-4-azidobutanamide] | – | 17.8 ± 1.1 | concentration for internalisation (absence of SVG signal) ([3]; 2 h treatment in culture medium): < 5 µM; time of internalisation ([3]; BGSN3 10 µM in culture medium): ca. 30 min; IC50 (SsOGT-H^5 [1]): 10 ± 0.7 µM |
| BG-PEG-NH2 [BGPA] | 14.3 ± 1.9 | 86 ± 6.7 | – |
| SNAP Cell^® 430 [SC430] | – | – | competition with SVG (SNAP-tag® [2]; competitive inhibition assay): completely lost the competition with SVG; competition with SVG (SsOGT-H^5 [1]; competitive inhibition assay): completely lost the competition with SVG |
| SNAP Cell^® Block [SCB] | 4.4 ± 0.8 | 2.1 ± 0.5 | – |
| SNAP-Vista^® Green [SVG] | – | – | k (second order rate constant of the enzymatic reaction) (SsOGT-H^5 [4]): 16000 M⁻¹ s⁻¹; k (second order rate constant of the enzymatic reaction) (SNAP-tag® [5]): 2.8 × 10^4 b s^−1 M^−1 |
| methyl-guanine-PEG-NH2 [MGPA] | – | – | IC50 (SsOGT-H^5 [1]; competitive assay for H^5 performed at 65 °C, read-out: IC50): 269 ± 19.1 µM |
